Test results taken from a melting point compilation (Tetko et al.).

| Structure (SMILES) | melting point [°C] |
| --- | --- |
| Cc1nn(C)c2ncc(S(=O)(=O)Cl)cc12 | 134 to 136 |
| O=C1C=CC(=O)N1c1cc(Cl)cc(Cl)c1 | 139 to 141 |
| O=C(O)c1cnc(OCC(F)(F)F)c(Cl)c1 | 162 to 164 |
| CC(O)C(NS(=O)(=O)c1ccc(Cl)cc1)C(=O)O (configuration not stated) | 179 to 181 |
| CCNC(C(=O)O)c1ccc(F)c(F)c1 (configuration not stated) | 277 to 279 |
| CCn1c(S)nc2ccccc21 | 135 to 137 |
| O=C(CN1CCNCC1)N1CCc2ccccc21 | 139 to 141 |
| Nc1nc2c(Br)cc(OC(F)(F)F)cc2s1 | 202 to 204 |
| O=C(O)c1ccccc1C(=O)N1CCCCC1 | 109 to 111 |
| c1ccc2cc(CN3CCNCC3)ccc2c1 | 53 to 55 |
| Cc1cc(CC(=O)O)c(C)n1-c1ccc(Cl)cc1 | 118 to 120 |
| NC1CCc2c(O)cccc21 (configuration not stated) | 167 to 169 |
| CC(C)CNC(=O)c1ccccc1N | 109 to 111 |
| O=C(CCl)Nc1nc(-c2ccc(F)cc2)cs1 | 142 to 144 |
| Cn1c(-c2ccccc2)cc2cc[nH]c(=O)c21 | 201 to 203 |
| Nc1cc2c(cc1Cl)OCO2 | 90 to 92 |
| CC(C)c1ccc(S(=O)(=O)N2CCNCC2)cc1 | 125 to 127 |
| NC(=O)NCC(=O)O | 174 to 176 |
| O=S(=O)(Cl)c1csc(-c2cccc(Br)c2)n1 | 94 to 96 |
| O=[N+]([O-])c1cc(I)ccc1Cl | 71 to 73 |

| Structure (SMILES) | melting point [°C] |
| --- | --- |
| NC(=O)NCC1CC1 | 117 to 119 |
| CC(=O)Nc1ccc(NC(=O)CC#N)cc1 | 305 to 307 |
| COC(=O)CCS(=O)(=O)c1ccc(Br)cc1 | 75 to 77 |
| Cc1cc(/C=C/C(=O)O)c(C)n1-c1ccc2c(c1)OCO2 | 194 to 196 |
| CCCOc1ccc(NS(C)(=O)=O)cc1 | 118 to 120 |
| CC(C)COC(=O)Nc1cccc(N)c1 | 92 to 94 |
| COC(=O)C(C#N)c1nc2ccccc2nc1Cl (configuration not stated) | 197 to 199 |
| Cc1c(F)cc(C#N)cc1[N+](=O)[O-] | 75 to 77 |
| Nc1ccc(Cl)c(S(=O)(=O)Nc2cccc(Cl)c2)c1 | 158 to 160 |
| Nc1nc(-c2ccccc2Cl)ns1 | 119 to 121 |
| CC(C)NC(=O)c1ccc(Cl)c(N)c1 | 131 to 133 |
| c1ccc(CNc2nc3ccccc3[nH]2)cc1 | 147 to 149 |
| N#CCc1c[nH]c2ccc(Br)cc12 | 103 to 105 |
| COc1ccc(C(=O)O)cc1-c1ccccn1 | 226 to 228 |
| O=C(O)c1cn(-c2ccccc2)nc1-c1ccc(Br)cc1 | 262 to 264 |
| COC(=O)CNc1ncccc1[N+](=O)[O-] | 104 to 106 |
| Cc1nc2ccccc2n1C(C(=O)O)C(C)C (configuration not stated) | 119 to 121 |
| O=C(O)C1CCN(Cc2ccc(Cl)s2)CC1 | 173 to 175 |
| O=C(O)CCSCc1nc2sc3c(c2c(=O)[nH]1)CCC3 | 227 to 229 |
| COCCOc1cccc(CC(=O)O)c1 | 47 to 49 |

| Structure (SMILES) | melting point [°C] |
| --- | --- |
| Cc1cc(C#N)ccc1CO | 66 to 68 |
| Cc1cc(S(=O)(=O)N(C)C)cc(N)c1C | 178 to 180 |
| O=C(O)c1ccc2c(=O)[nH][nH]c(=O)c2c1 | 250 to 252 |
| CCN(CC)S(=O)(=O)c1ccc(C(=O)CBr)cc1 | 79 to 81 |
| N#CCN(C(=O)c1ccccc1)C1CC1 | 103 to 105 |
| S=C(Nc1ccccc1)N1CCCCC1 | 99 to 101 |
| O=C1NC(=O)C(c2cccs2)(C2CC2)N1 (configuration not stated) | 199 to 201 |
| Cc1c(C)c(C)c(S)c(C)c1C | 62 to 64 |
| Nc1nc2ccccc2nc1Cl | 141 to 143 |
| Nc1c(-c2ccccc2)ncn1N | 126 to 128 |
| O=S(=O)(O)c1nc2ccccc2[nH]1 | 116 to 119 |
| Nc1ccc(S(=O)(=O)Nc2ccc(Cl)cc2)cc1 | 180 to 182 |
| Cc1cccc(C)c1C=O | 27 to 30 |
| Cc1ccc(C(C)C)c(OCCC(=O)O)c1 | 93 to 95 |
| O=C(O)c1cc(S(=O)(=O)Cl)ccc1Cl | 105 to 115 |
| CCOc1ccccc1OCC(=O)NN | 94 to 96 |
| OC(c1ccccc1)c1nc(-c2ccccc2)no1 (configuration not stated) | 97 to 99 |
| CCC(=O)N1CCc2cc(C(=O)O)ccc21 | 228 to 230 |

Further lines, results first:

| melting point [°C] | Structure (SMILES) |
| --- | --- |
| 347 to 349 | NC(=O)c1ccc(C(=O)O)cn1 |
| < 17 | O=C1CN=C(S)N1Cc1ccccc1 |
| 131 to 134 | COc1cc(C=O)cc(O)c1O |
| 63 to 65 | OC(CCl)CNCc1ccccc1 (configuration not stated) |
| 190 to 192 | NC(=O)NC(CC(=O)O)c1cccs1 (configuration not stated) |
| 152 to 154 | O=C(O)c1ccc(Oc2ccc(Oc3ccccc3)cc2)nc1 |
| 235 to 237 | O=C(O)c1ccc(S(=O)(=O)N2CCCCCC2)cc1 |
| 91 to 93 | O=C(Nc1ccc(S(=O)(=O)Cl)cc1[N+](=O)[O-])C(F)(F)F |
| 290 to 292 | O=C(O)c1ccc(Cl)c(N2CCNC2=O)c1 |
| 213 to 215 | O=C(O)COc1ccc2ccc(=O)oc2c1 |
| 193 to 195 | CCc1noc2ncc(C(=O)O)cc12 |
| 71 to 73 | COCCNc1nc(Cl)nc(Cl)n1 |
| 85 to 87 | O=C(Cl)c1cc(Cl)nc2ccccc12 |
| 72 to 74 | CCOC(=O)Cn1[nH]cc(C(=O)OCC)c1=N |
| 227 to 229 | N#CC(=Cc1ccco1)C(=O)O |
| 95 to 97 | CN(C)S(=O)(=O)c1ccc(O)cc1 |
| 149 to 151 | N#Cc1cnc(C(=O)O)c(Cl)c1 |
| 45 to 47 | CCOc1ccc(OC)cc1N |
| 135 to 137 | NNC(=O)c1ccc(S(=O)(=O)N2CCN(Cc3ccccc3)CC2)cc1 |
| 215 to 217 | Cc1[nH]c2ccc(F)cc2c1C=O |
| 110 to 112 | CCc1cc(NN)nc(-c2ccccn2)n1 |
| 74 to 78 | CCOc1cc2c(cc1C=O)OC(C)C2 (configuration not stated) |

| melting point [°C] | Structure (SMILES) |
| --- | --- |
| 119 to 121 | CNS(=O)(=O)CC(=O)O |
| 62 to 64 | O=C1CCC(C(=O)O)CC1 |
| 184 to 186 | O=C(O)Cc1csc(N2CCCNC2=O)n1 |
| 96 to 98 | Nc1cc([N+](=O)[O-])ccn1 |
| 223 to 225 | Cc1cc(=O)[nH][nH]1 |
| 201 to 203 | CCOC(=O)c1c[nH]n2c1nc(=O)c1ccccc12 |
| 221 to 224 | O=C(O)c1ccc(Cl)c(S(=O)(=O)NC2CC2)c1 |
| 64 to 66 | CC(C)(C(=O)O)C1CCCCC1 |
| 125 to 127 | NC(=O)Cc1csc(-c2ccco2)n1 |
| 134 to 136 | CC(C)(C)NC(=O)N1CCCc2c(C(=O)O)cccc21 |
| 121 to 123 | CS(=O)(=O)Nc1cc(F)ccc1N |
| 206 to 208 | CCCNC(=O)c1ccccc1N |
| 89 to 91 | Cc1ccc(NC2CCCCC2)nc1 |
| 165 to 167 | O=C(O)C1CSC(c2cccc(Br)c2)N1 (configuration not stated) |
| 163 to 165 | Cc1nnc2c(Cl)cccn12 |
| 99 to 101 | C#Cc1cnc2ccccc2n1 |
| 103 to 105 | Nc1ccc(CSc2ccccn2)cc1 |
| 133 to 135 | Cc1cc(C)cc(N(CCC(=O)O)S(=O)(=O)c2ccc(Br)cc2)c1 |
| 202 to 204 | OCCn1c(CSc2nnc(-c3ccc4c(c3)OCO4)o2)nc2ccc(Cl)cc21 |
| 140 to 142 | O=C(O)COc1ccc(F)cc1Cl |
| 38 to 42 | ClCc1nc(-c2cccc(Cl)c2)no1 |
| 93 to 95 | Clc1nnc(-c2ccccc2Cl)s1 |
